In patent US5416119A, “Alkylaminoalkyl-terminated sulfide/sulfonyl-containing cycloalkyl-alanine amino-diol compounds for treatment of hypertension” (G. D. Searle & Co., priority 1993, dated 1995):

Molecular target: T1, Human Renin (Homo sapiens, UniProt P00797)
T1 construct: purchased National Institute for Biological Standards, London
T1 sequence (P00797 67-406): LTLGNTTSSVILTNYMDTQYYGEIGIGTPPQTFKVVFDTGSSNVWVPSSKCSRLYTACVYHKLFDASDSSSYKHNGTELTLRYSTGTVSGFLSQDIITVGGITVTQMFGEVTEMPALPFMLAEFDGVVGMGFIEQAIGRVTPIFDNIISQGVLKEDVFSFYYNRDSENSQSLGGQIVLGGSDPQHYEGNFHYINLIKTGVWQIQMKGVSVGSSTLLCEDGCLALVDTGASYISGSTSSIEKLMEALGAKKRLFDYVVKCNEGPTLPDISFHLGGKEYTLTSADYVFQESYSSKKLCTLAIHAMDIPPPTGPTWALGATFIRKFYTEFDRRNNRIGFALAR
Experiment: Human renin inhibition in vitro (angiotensin I produced, determined by radioimmunoassay)
Type: biochemical
Details: human plasma, pH 7.4, 37° C., two hours
Protocol: Compounds of Formula I were evaluated as inhibitors of human renin in an in vitro assay, as follows: This human renin inhibition test has been previously described in detail [Papaioannou et al., Clinical and Experimental Hypertension, A7(9), 1243-1257 (1985)]. Human renin was obtained from the National Institute for Biological Standards, London. An incubation mixture was prepared containing the following components: in a total volume of 0.25 mL: 100 mM Tris-acetate buffer at pH 7.4, 25×10^-6 Goldblatt units of renin, 0.05 mL of plasma from human volunteers taking oral contraceptives, 6.0 mM Na-EDTA, 2.4 mM phenylmethyl sulfonyl fluoride, 1.5 mM 8-hydroxyquinoline, 0.4 mg/mL bovine serum albumin (BSA), and 0.024 mg/mL neomycin sulfate. This mixture was incubated for two hours at 37° C. in the presence or absence of renin inhibitors. The produced angiotensin I was determined by radioimmunoassay (New England Nuclear kit). Test compounds to be assayed were dissolved in DMSO and diluted with 100 mM Tris-acetate buffer at pH 7.4 containing 0.5% BSA to the appropriate concentration. The final concentration of organic solvent in the reaction mixture was less than 1%. Control incubations at 37° C. were used to correct for effects of organic solvent on renin activity.

Compound: CC(C)C[C@H](O)[C@H](O)[C@H](CC1CCCCC1)NC(=O)C(CC1CC1)NC(=O)C(Cc1ccccc1)CS(=O)(=O)CCN(C)C (stereo partly drawn) [Example 1, N-[2-[[1S,1R*-(cyclohexylmethyl)-2S*,3R* -dihydroxy-5-methylhexyl]amino]-1R*-(cyclopropylmethyl)-2-oxoethyl]-α-[[[2-(dimethylamino)ethyl]sulfonyl]methyl]benzenepropanamide]
- IC50: 1.3 nM
